Residues, ends and D or L forms follow the SMILES beside them. *: point of attachment. Cbz = O=C(OCc1ccccc1)*

The source of these data is patent publication US9565840B2, “Fibrotic non-human animal, and use thereof” (KYOTO UNIVERSITY, priority 2012, dated 2017).

This test concerns IKKβ. Nature of the test: IKKβ level in fibroblasts from the skin of scleroderma patients, MG132 pre-treatment before IL-1β stimulation. Type of test: cell-based, human. Particulars: fibroblast from the skin of scleroderma patients; 2 μM MG132 for 2 hr before IL-1β (2.5 ng/mL, 60 min) stimulation; FIG. 11-3. The procedure:
The skin of scleroderma patients (n=5) and healthy individual (n=5) was collected by biopsy, and fibroblast was prepared. The fibroblast was cultured in DMEM medium added with L-glutamine, penicillin/streptomycin and 10% FCS at 37° C., 5% CO2 concentration. After culture, nuclear protein was extracted from the fibroblast by using NE-PER nuclear protein cytoplasmic protein separation extraction kit (Thermo Scientific), and the p65 protein levels of the whole-cell lysate and nuclear extract were compared. RNA was isolated from the fibroblast by using RNA aqueous (trade mark) kit (Applied Biosytems (trade mark)), and the p65 mRNA level was compared using TaqMan (registered trade mark) Gene Expression Assays kit (Applied Biosytems (trade mark)). The NFκB activity of the fibroblast was measured by NFκB p65 Transcription Assay Kit (Thermo Scientific) and compared. […] Further, fibroblasts from the skin of scleroderma patients were stimulated for 60 min with IL-1β (2.5 ng/mL), and IKKβ and nuclear p65 protein amounts were compared. […] In addition, fibroblast from the skin of scleroderma patients was treated with 2 μM MG132 for 2 hr before the aforementioned IL-β stimulation, and the IKKβ level was measured.

Take `CC(C)C[C@@H](C=O)NC(=O)[C@H](CC(C)C)NC(=O)[C@H](CC(C)C)NC(=O)OCc1ccccc1` [MG132] (Cbz-Leu-Leu-Leu-aldehyde): the IKKβ level result is recorded as “recovered the IKKβ level”.
